The target in experiment [1] is T1, human GLP-1R receptor (Homo sapiens, UniProt P43220, L260F).
T1 construct: expressed in transfected cells; host or cells: CHO-K1 (ATCC CCL-61)
As to the kind of experiment: CHOK1 GLP-1R cAMP assay (HTRF). Type of experiment: cell-based. The conditions noted are these: CHO-K1 cells stably expressing human GLP-1R. The protocol: A cell line stably expressing the human GLP-1R receptor (NM_002062.5, including the naturally-occurring variant Leu260Phe) in a CHO-K1 (ATCC® CCL-61™) was used for assay.
GLP-1 receptor mediated agonist activity was determined in a cell-based assay measuring cyclic adenosine monophosphate (cAMP) levels in cells using Homogeneous Time-Resolved Fluorescence (HTRF) cAMP detection kit (CisBio catalog #62AM4PEC, cAMP Gs Dynamic range kit). The cAMP detection method is based on a competitive immunoassay, in which cAMP produced by the cells and cAMP labeled with the dye d2 compete for binding to a Europium-Cryptate-labeled anti-cAMP antibody. The specific HTRF signal is inversely proportional to the concentration of cAMP.
Compounds were added to individual well in 384 well-assay plates (Greiner #784076) using an Echo (LabCyte) dispenser from 10 mM stocks. Varying concentration of compounds were added to wells, and DMSO was used to normalize each well to a volume of 100 nL. A dose response curve of GLP-1(7-36)NH2 (Bachem H-6795) was included in each run. 5 μL of cAMP concentration response standards are applied in specified wells in the assay plates. Cryo-preserved cells are thawed and resuspended in assay buffer pre-heated to 37° C. (20 mM 2-[4-(2-hydroxyethyl)piperazin-1-yl]ethanesulfonic acid (HEPES) pH 7.4, lx Hank's Balanced Salt Solution (HBSS, Life Technologies #14065) supplemented with 0.1% (w/v) bovine serum albumin (Sigma, A-7030)). Cells were centrifuged at 250*g for 5 min at rt, and resuspended in room tempered assay buffer to a final density of 0.16*10^6 cell/mL, to deliver 800 cells/well. 5 μL of assay buffer with 1 mM 3-isobutyl-1-methylxanthin (IBMX; Sigma cat I-7018) was dispensed per well in assay plates using a multidrop combi (Thermo Scientific) subsequently 5 μL of cell suspension was distributed to relevant wells in the assay using a multidrop dispenser. Assay plates were incubated 20 min at rt.
Detection reagents, Europium-Cryptate-labeled anti-cAMP antibody and cAMP labeled with the dye d2, are diluted in lysis buffer, provided by the manufacturer. 5 μL of each detection reagent is supplemented to each assay well using a multidrop dispenser. Assay plates are incubated in the dark for at least one h. The HTRF signal is measured using the HTRF module (excitation: 337 nm, emission A: 665 nm and emission B: 620 nm) in Pherastar FSX (BMG Labtech).
Raw data were converted to pM cAMP using the cAMP standard curve included in each run. Converted data were further analyzed in Genedata Screener (Genedata) and EC50 determinations were made from agonist dose-response curves analyzed with a curve fitting program using a 4-parameter logistic dose response equation (Equation y=A+((B−A)/1+((C/x)^D))) where A is no stimulation, B is full stimulation, C is the EC50 and D is the Hill slope). The percent effect was determined relative to a saturating concentration of a full GLP-1R agonist (GLP-1(7-36)NH2 has 100% effect in this assay setup).

Experiment [2] concerns the target T2, GLP-1R (Homo sapiens, UniProt P43220).
T2 construct: host or cells: EndoC-βH1
As to the kind of experiment: EndoC cAMP accumulation assay (HTRF, EndoC-βH1 cells). The class given is cell-based. The conditions noted are these: EndoC-βH1 human pancreatic β cell line. The source says:
EndoC cAMP Accumulation Assay
A HTRF cAMP assay (cAMP Gs dynamic kit; CisoBio Cat #62AM4PEJ) was used to identify agonists of GLP-1R in a pancreatic insulinoma cell line (EndoC-PH1). […] EndoC-βH1 cells have detectable GLP-1R messenger ribonucleic acid (mRNA) as detected by quantitative polymerase chain reaction (qPCR). […] The EndoC-βH1 cell line is a valid model of human beta cells and applicable for screenings to identify novel drug target candidates (Mol. Metab., 2018, 8, 144-157). CisBio HTRF cAMP kits are based on a competitive immunoassay using cryptate-labelled anti-cAMP antibody and d2-labeled cAMP. The detection kit is intended for the direct quantitative determination of cAMP. The specific signal (i.e. energy transfer) is inversely proportional to the concentration of cAMP in the standard or sample. Test compounds (10 mM in DMSO) were diluted into assay buffer (HBSS (Sigma #H8264) supplemented with 25 mM HEPES (Gibco #15630, pH 7.4), 0.1% BSA (Sigma #A3059) and 0.5 mM IBMX (Sigma #I7018) included fresh on the day of the assay) into 96 well U-bottom plates (Greiner #650201). Diluted compounds were transferred to ECHO source polypropelene plates (Labcyte #P-05525) and dose response curves were dispensed acoustically using ECHO 550 into black shallow-well u-bottom 384-well HTRF Assay Plates (Corning 4514).
Cryovials of EndoC-H1 (supplied at 1×10e^7 cells/vial) were used directly for screening. The cryovials and were removed from N2(l) and thawed rapidly in a 37° C. water bath. The cells were resuspended in assay buffer and centrifuged at 300 g for 5 min. Cells were resuspended in assay buffer at the appropriate concentration, typically at 12e5 cells per mL (3000 cells per well, dependent on cell batch) and 2.5 μL diluted cells were added to all wells of destination plate by Multidrop combi reagent dispenser (Thermofisher). The plates were incubated at rt for 30 min. The assay was stopped by adding 2.5 μL anti-cAMP cryptate solution to all wells and 2.5 μL cAMP-d2 solution (both diluted 1:20 in lysis buffer) to columns 1-22 by Combi drop. A volume of 2.5 μL cAMP-d2 solution was added to wells E23 to P24 and 2.5 μL lysis buffer added to wells A23 to D24 by multichannel pipette. The plates were incubated at rt for 1 h and read on an Envision plate reader using excitation wavelength of 320 nm and emission of 590 nm and 660 nm.
Raw data from Envision is converted to % DeltaF according to the manufacturer's instructions. Dose response curves are analysed via 4-Parameter Logistical Analysis and assay plate Z′ values obtained. Samples are graphed as percentage (%) activation plots compared to GIP (1-42, Bachem H-5645) with assay window defined by negative control as basal cell cAMP levels and positive control are defined by maximum GIP (82.5 nM) signal. GLP-1 (7-36 amide, Bachem H-6795) dose response curve was included on all plates.

Experiment [3] addresses T3, human phosphodiesterase-3A (Homo sapiens, UniProt Q14432).
T3 construct: host or cells: Sf9 (Spodoptera frugiperda)
As to the kind of experiment: PDE3 assay (formation of 5'AMP from cAMP, SPA). Type of experiment: biochemical. The conditions noted are these: human recombinant enzyme expressed in Sf9 cells. The protocol: Evaluation of the effects of compounds on the activity of the human phosphodiesterase-3A is quantified by measuring the formation of 5′AMP from cAMP using a human recombinant enzyme expressed in a clonal isolate of Spodoptera frugiperda cells (Sf9) cells.
The test compound, reference compound or water (control) are added to a buffer containing 40 mM tris(hydroxymethyl)aminomethane (Tris)/HCl (pH 7.4) and 8 mM MgCl2, 450 nMcAMP and 0.25 μCi [3H]cAMP.
Thereafter, the reaction is initiated by addition of the enzyme (about 1 U) and the mixture is incubated for 20 min at 22° C.
For basal control measurements, the enzyme is omitted from the reaction mixture.
Following incubation SPA beads are added. After 30 min at 22° C. under shaking, the amount of [^3H]5′AMP is quantified with a scintillation counter (Topcount, Packard).
The results are expressed as a percent inhibition of the control enzyme activity. The standard inhibitory reference compound is milrinone (CAS number 78415-72-2), which is tested in each experiment at several concentrations to obtain an inhibition curve from which its IC50 value is calculated.

Bounds are passed on as bounds.

By EC50 is commonly meant the concentration giving half of the maximal effect. A low value points to an effect from little substance. What is called IC50 is the concentration at which inhibition is half-maximal.

T1 sequence (P43220 24-463 L260F): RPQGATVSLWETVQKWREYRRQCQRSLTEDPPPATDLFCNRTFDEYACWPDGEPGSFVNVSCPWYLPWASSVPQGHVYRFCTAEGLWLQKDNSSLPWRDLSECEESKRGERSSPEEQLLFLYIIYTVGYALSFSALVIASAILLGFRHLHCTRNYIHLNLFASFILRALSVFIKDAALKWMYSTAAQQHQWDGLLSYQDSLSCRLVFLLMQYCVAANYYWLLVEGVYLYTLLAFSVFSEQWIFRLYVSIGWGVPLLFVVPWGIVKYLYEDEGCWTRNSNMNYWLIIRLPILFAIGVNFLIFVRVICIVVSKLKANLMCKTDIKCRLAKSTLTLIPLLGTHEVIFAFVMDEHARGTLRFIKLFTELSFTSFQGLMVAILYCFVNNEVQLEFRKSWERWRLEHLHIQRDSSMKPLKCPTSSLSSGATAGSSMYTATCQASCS
T2 sequence (P43220 24-463): as the sequence (P43220 24-463 L260F) above, with F237L counted along it
T3 sequence (Q14432 whole entry): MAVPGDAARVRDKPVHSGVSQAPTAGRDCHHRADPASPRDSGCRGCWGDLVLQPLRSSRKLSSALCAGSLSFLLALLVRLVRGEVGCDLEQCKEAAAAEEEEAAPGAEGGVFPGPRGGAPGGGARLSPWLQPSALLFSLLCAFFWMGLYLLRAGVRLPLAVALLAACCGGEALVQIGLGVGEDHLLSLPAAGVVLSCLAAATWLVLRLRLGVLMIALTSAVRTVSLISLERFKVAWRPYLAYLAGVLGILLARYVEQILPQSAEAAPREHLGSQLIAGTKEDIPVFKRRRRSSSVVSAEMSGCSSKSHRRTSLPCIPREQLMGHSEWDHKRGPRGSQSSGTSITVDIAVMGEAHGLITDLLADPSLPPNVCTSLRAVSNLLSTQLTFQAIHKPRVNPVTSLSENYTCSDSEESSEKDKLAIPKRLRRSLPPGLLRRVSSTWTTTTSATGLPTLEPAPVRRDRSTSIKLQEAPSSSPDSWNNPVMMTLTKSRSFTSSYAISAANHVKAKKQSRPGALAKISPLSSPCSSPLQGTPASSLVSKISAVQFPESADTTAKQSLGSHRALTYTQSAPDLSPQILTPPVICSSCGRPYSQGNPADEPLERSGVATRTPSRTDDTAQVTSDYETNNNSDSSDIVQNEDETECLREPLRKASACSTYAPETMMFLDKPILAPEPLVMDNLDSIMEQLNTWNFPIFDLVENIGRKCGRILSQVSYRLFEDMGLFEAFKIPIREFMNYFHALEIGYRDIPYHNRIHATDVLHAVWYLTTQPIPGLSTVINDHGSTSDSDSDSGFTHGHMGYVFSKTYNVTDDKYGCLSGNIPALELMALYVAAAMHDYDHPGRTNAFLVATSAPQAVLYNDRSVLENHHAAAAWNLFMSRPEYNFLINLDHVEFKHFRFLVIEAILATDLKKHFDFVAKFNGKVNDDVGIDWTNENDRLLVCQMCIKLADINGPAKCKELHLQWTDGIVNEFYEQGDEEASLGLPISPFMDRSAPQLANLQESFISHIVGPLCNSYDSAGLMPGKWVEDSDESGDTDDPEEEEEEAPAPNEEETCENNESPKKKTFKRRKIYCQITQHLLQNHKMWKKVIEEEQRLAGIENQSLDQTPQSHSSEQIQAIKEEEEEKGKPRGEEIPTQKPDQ

With `N#Cc1ccc(COc2cccc(N3CCN(Cc4nc5ccc(C(=O)O)cc5n4C[C@@H]4CCO4)[C@H]4COC[C@H]43)n2)c(F)c1` (racemic) [Example 17, 2-(((4aRS,7aSR)-4-(6-((4-Cyano-2-fluorobenzyl)oxy)pyridin-2-yl)hexahydrofuro[3,4-b]pyrazin-1(2H)-yl)methyl)-1-(((S)-oxetan-2-yl)methyl)-1H-benzo[d]imidazole-6-carboxylic acid], the EC50 came out at 2 nM in experiment [1] and 14 nM in experiment [2]. Also, in experiment [3], the 50% inhibitory concentration (IC50) turned out to be 3500 nM.

As to `N#Cc1ccc(COc2cccc(N3CCN(Cc4nc5c(F)cc(C(=O)O)cc5n4C[C@@H]4CCO4)[C@H]4CC[C@@H]43)n2)c(F)c1` (single isomer, unassigned) [Example 3b, 2-(((1R*,6R*)-5-(6-((4-Cyano-2-fluorobenzyl)oxy)pyridin-2-yl)-2,5-diazabicyclo[4.2.0]octan-2-yl)methyl)-4-fluoro-1-(((S)-oxetan-2-yl)methyl)-1H-benzo[d]imidazole-6-carboxylic acid], the EC50 was 1.1 nM in experiment [1] and 8.7 nM in experiment [2]. Besides, the IC50 in experiment [3] is 11000 nM.

With `COc1cc(C(=O)O)cc2c1nc(CN1CCN(c3cccc(OCc4ccc(C#N)cc4F)n3)[C@H]3CC[C@@H]31)n2C[C@@H]1CCO1` (single isomer, unassigned) [Example 4a, 2-(((1R*,6R*)-5-(6-((4-Cyano-2-fluorobenzyl)oxy)pyridin-2-yl)-2,5-diazabicyclo[4.2.0]octan-2-yl)methyl)-4-methoxy-1-(((S)-oxetan-2-yl)methyl)-1H-benzo[d]imidazole-6-carboxylic acid], the EC50 in experiment [1] amounted to 4 nM; in experiment [2], 5.5 nM. Moreover, the IC50 in experiment [3] worked out at 3800 nM.

`COc1cc(C(=O)O)cc2c1nc(CN1CCN(c3cccc(OCc4ccc(C#N)cc4F)n3)[C@H]3CC[C@@H]31)n2C[C@@H]1CCO1` (single isomer, unassigned) [Example 4b, 2-(((1R*,6R*)-5-(6-((4-Cyano-2-fluorobenzyl)oxy)pyridin-2-yl)-2,5-diazabicyclo[4.2.0]octan-2-yl)methyl)-4-methoxy-1-(((S)-oxetan-2-yl)methyl)-1H-benzo[d]imidazole-6-carboxylic acid]: the 50% effective concentration (EC50) in experiment [1] was 0.6 nM; in experiment [2], 3 nM. The half-maximal inhibitory concentration (IC50) in experiment [3] amounted to 6500 nM.

`COc1cc(C(=O)O)cc2c1nc(CN1CCN(c3cccc(OCc4ccc(Cl)cc4F)n3)[C@H]3CC[C@@H]31)n2C[C@@H]1CCO1` (single isomer, unassigned) [Example 5b, 2-(((1R*,6R*)-5-(6-((4-Chloro-2-fluorobenzyl)oxy)pyridin-2-yl)-2,5-diazabicyclo[4.2.0]octan-2-yl)methyl)-4-methoxy-1-(((S)-oxetan-2-yl)methyl)-1H-benzo[d]imidazole-6-carboxylic acid]: the EC50 in experiment [1] is 0.5 nM; in experiment [2], 2.1 nM. In addition, in experiment [3], the IC50 is above 100000 nM.

With `N#Cc1ccc(COc2cccc(N3CCN(Cc4nc5c(Cl)cc(C(=O)O)cc5n4C[C@@H]4CCO4)[C@H]4CC[C@H]43)n2)c(F)c1` (single isomer, unassigned) [Example 6a], the EC50 in experiment [1] was 0.6 nM; in experiment [2], 1.9 nM. For the same compound, the IC50 in experiment [3] was determined as 2900 nM.

On to `N#Cc1ccc(COc2cccc(N3CCN(Cc4nc5c(Cl)cc(C(=O)O)cc5n4C[C@@H]4CCO4)[C@H]4CC[C@H]43)n2)c(F)c1` (single isomer, unassigned) [Example 6c], for which the EC50 came out at 8.1 nM in experiment [1] and 5.6 nM in experiment [2]. Further, the half-maximal inhibitory concentration (IC50) in experiment [3] was determined as 2500 nM.

On to `N#Cc1ccc(COc2cccc(N3CCN(Cc4nc5c(Cl)cc(C(=O)O)cc5n4C[C@@H]4CCO4)[C@H]4CC[C@H]43)n2)c(F)c1` (single isomer, unassigned) [Example 6d], for which the results for the half-maximal effective concentration (EC50) in experiment [1] and in experiment [2] were 3.5 nM and 2.4 nM, respectively. Besides, the IC50 in experiment [3] turned out to be 3000 nM.

As to `N#Cc1ccc(COc2cccc(N3CCN(Cc4nc5cc(Cl)c(C(=O)O)cc5n4C[C@@H]4CCO4)[C@H]4CC[C@H]43)n2)c(F)c1` (single isomer, unassigned) [Example 7a], the values for the concentration giving a half-maximal response (EC50) in experiment [1] and in experiment [2] were 9.4 nM and 7.2 nM, respectively. Besides, the IC50 in experiment [3] was determined as 2200 nM.

For the compound `N#Cc1ccc(COc2cccc(N3CCN(Cc4nc5cc(F)c(C(=O)O)cc5n4C[C@@H]4CCO4)[C@H]4CC[C@@H]43)n2)c(F)c1` (single isomer, unassigned) [Example 9b], the EC50 amounted to 2.1 nM in experiment [1] and 27 nM in experiment [2]. In experiment [3], the 50% inhibitory concentration (IC50) amounted to 4600 nM.

For the compound `N#Cc1ccc(COc2cccc(C3CCN(Cc4nc5ccc(C(=O)O)cc5n4C[C@@H]4CCO4)CC3)n2)c(F)c1` [Ref Comp B, reference compound], the concentration for half-maximal inhibition (IC50) in experiment [3] is 11000 nM.

The values above are taken from patent US20250115612A1, “CERTAIN 2,5-DIAZABICYCLO[4.2.0]OCTANES AND OCTAHYDROFURO[3,4-B]PYRAZINES AS GLP-1 RECEPTOR MODULATORS” (ASTRAZENECA AB, priority 2021, published 2025).
